Where a name gives a salt, the structure may show the parent alone.
Biological target: CDK7/CycH/MAT1 (Homo sapiens, UniProt P50613)
Experiment: Kinase Glo (ADP-Glo) biochemical assay, CDK7
Conditions: CDK7/CycH/MAT1 40 ng, ATP 1 μM, 60 minutes at RT, luminescence
Protocol: Materials: • Assay Buffer: 50 mM HEPES, 3 mM MgCl2, 3 mM MnCl2, 1 mM DTT, 3 μM Na3VO4, pH 7.5 • Substrate RB • CTF Peptide (ProQinase #: 0040-0000-6) • Enzymes • CDK7/CycH/MAT1 (ProQinase #: 0366-0360-4) • ADP-Glo™ Assay (Promega #: V9101) • ATP: 10 mM • ADP-Glo™ Reagent • Kinase Detection Reagent • 384-well white assay plates
A ten point serial dilution of compound was prepared at 5X concentration in assay buffer with the final assay concentrations starting at 30 μM, 10 μM, 3 μM, 1 μM . . . 0 μM. Enzyme, substrate, and ATP were used at 40 ng, 200 ng (or 400 ng)* and 1 μM, respectively. The assay plate was set up by mixing the components in a total reaction volume of 10 μL per well. The plate was centrifuged gently for 10 seconds and incubated at room temperature (RT) for 60 minutes in the dark. The ADP-Glo Reagent and kinase detection reagent were added and incubated as recommended. The reaction was quantified by measuring luminescence on the Perkin Elmer Envision plate reader.

CDK7/CycH/MAT1, sequence (P50613 whole entry): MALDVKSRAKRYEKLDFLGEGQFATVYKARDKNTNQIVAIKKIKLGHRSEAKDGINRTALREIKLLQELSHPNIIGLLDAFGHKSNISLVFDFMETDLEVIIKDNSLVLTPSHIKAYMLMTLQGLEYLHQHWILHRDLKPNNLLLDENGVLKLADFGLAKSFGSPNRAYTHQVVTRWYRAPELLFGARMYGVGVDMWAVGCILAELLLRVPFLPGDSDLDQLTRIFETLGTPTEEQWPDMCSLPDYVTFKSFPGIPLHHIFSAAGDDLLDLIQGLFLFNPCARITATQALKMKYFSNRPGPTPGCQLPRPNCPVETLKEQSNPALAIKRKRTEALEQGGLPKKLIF
CDK7/CycH/MAT1, sequence (P51946 whole entry partner): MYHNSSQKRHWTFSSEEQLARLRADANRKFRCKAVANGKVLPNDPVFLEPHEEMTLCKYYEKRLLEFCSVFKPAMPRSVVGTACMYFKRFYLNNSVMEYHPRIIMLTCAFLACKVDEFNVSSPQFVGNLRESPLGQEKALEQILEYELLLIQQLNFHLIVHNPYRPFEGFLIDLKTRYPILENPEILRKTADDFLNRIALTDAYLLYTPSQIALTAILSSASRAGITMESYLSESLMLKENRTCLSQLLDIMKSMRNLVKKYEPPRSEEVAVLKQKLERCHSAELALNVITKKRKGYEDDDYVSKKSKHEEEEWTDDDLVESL
CDK7/CycH/MAT1, sequence (P51948 whole entry partner): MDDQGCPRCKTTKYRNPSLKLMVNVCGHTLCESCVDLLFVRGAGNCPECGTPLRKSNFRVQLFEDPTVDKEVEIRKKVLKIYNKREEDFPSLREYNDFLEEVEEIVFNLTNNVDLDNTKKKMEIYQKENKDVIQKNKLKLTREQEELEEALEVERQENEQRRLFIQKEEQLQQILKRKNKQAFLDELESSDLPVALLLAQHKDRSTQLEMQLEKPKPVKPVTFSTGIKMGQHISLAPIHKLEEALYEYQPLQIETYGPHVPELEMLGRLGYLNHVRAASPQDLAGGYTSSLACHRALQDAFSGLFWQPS

IC50 [nM]	SMILES
< 100	CC(C)c1cnc2c(NCc3ccccc3)cc(S[C@H]3CCCNC3)nn12 (single isomer, unassigned) [Compound 42, hydrochloride]
100 to 1000	CN1CCC(Oc2cc(Nc3cccc(F)c3)c3ncc(C4CC4)n3n2)CC1 [Compound 2, 3-cyclopropyl-N-(3-fluorophenyl)-6-((1-methylpiperidin-4-yl)oxy)imidazo[1,2-b]pyridazin-8-amine]
100 to 1000	CN1CC[C@@H](Oc2cc(Nc3cccc(F)c3)c3ncc(C4CC4)n3n2)C1 [Compound 3, (R)-3-cyclopropyl-N-(3-fluorophenyl)-6-((1-methylpyrrolidin-3-yl)oxy)imidazo[1,2-b]pyridazin-8-amine]
100 to 1000	CN1CC[C@H](Oc2cc(Nc3cccc(F)c3)c3ncc(C4CC4)n3n2)C1 [Compound 5, (S)-3-cyclopropyl-N-(3-fluorophenyl)-6-((1-methylpyrrolidin-3-yl)oxy)imidazo[1,2-b]pyridazin-8-amine]
100 to 1000	CN1CC[C@H](Oc2cc(NCc3ccccc3)c3ncc(C4CC4)n3n2)C1 [Compound 8, (S)—N-benzyl-3-cyclopropyl-6-((1-methylpyrrolidin-3-yl)oxy)imidazo[1,2-b]pyridazin-8-amine]
100 to 1000	CN1CCC[C@@H](Oc2cc(NCc3ccccc3)c3ncc(C4CC4)n3n2)C1 [Compound 9, (R)—N-benzyl-3-cyclopropyl-6-((1-methylpiperidin-3-yl)oxy)imidazo[1,2-b]pyridazin-8-amine]
100 to 1000	CN1CC[C@@H](Oc2cc(NCc3ccccc3)c3ncc(C4CC4)n3n2)C1 [Compound 10, (R)—N-benzyl-3-cyclopropyl-6-((1-methylpyrrolidin-3-yl)oxy)imidazo[1,2-b]pyridazin-8-amine]
100 to 1000	CN1CCC[C@H](Oc2cc(NCc3ccccc3)c3ncc(C4CC4)n3n2)C1 [Compound 11, (S)—N-benzyl-3-cyclopropyl-6-((1-methylpiperidin-3-yl)oxy)imidazo[1,2-b]pyridazin-8-amine]
100 to 1000	c1ccc(CNc2cc(O[C@H]3CCNC3)nn3c(C4CC4)cnc23)cc1 [Compound 12, (S)—N-benzyl-3-cyclopropyl-6-(pyrrolidin-3-yloxy)imidazo[1,2-b]pyridazin-8-amine]
100 to 1000	c1ccc(CNc2cc(O[C@@H]3CCCNC3)nn3c(C4CC4)cnc23)cc1 [Compound 13, (R)—N-benzyl-3-cyclopropyl-6-(piperidin-3-yloxy)imidazo[1,2-b]pyridazin-8-amine]
100 to 1000	c1ccc(CNc2cc(OC3CCNCC3)nn3c(C4CC4)cnc23)cc1 [Compound 14, N-benzyl-3-cyclopropyl-6-(piperidin-4-yloxy)imidazo[1,2-b]pyridazin-8-amine]
100 to 1000	CN1CCC(Oc2cc(NCc3ccccc3)c3ncc(C4CC4)n3n2)CC1 [Compound 15, N-benzyl-3-cyclopropyl-6-((1-methylpiperidin-4-yl)oxy)imidazo [1,2-b] pyridazin-8-amine]
100 to 1000	CN1CCC[C@H](Nc2cc(NCc3ccccc3)c3ncc(C4CC4)n3n2)C1 [Compound 16, (S)-N8-benzyl-3-cyclopropyl-N6-(1-methylpiperidin-3-yl)imidazo[1,2-b]pyridazine-6,8-diamine]
100 to 1000	c1ccc(CNc2cc(NCC3CC4(CCNCC4)O3)nn3c(C4CC4)cnc23)cc1 (centres unmarked) [Compound 17, N6-((1-oxa-7-azaspiro[3.5]nonan-2-yl)methyl)-N8-benzyl-3-cyclopropylimidazo[1,2-b]pyridazine-6,8-diamine]
< 100	c1ccc(CNc2cc(SC3CCNCC3)nn3c(C4CC4)cnc23)cc1 [Compound 18, N-benzyl-3-cyclopropyl-6-(piperidin-4-ylthio)imidazo[1,2-b]pyridazin-8-amine hydrochloride]
100 to 1000	c1ccc(CNc2cc(NCCC3CNCCO3)nn3c(C4CC4)cnc23)cc1 (centres unmarked) [Compound 19, N8-benzyl-3-cyclopropyl-N6-(2-(morpholin-2-yl)ethyl)imidazo[1,2-b]pyridazine-6,8-diamine formate]
> 1000	O=C(N1CCC(Sc2cc(NCc3ccccc3)c3ncc(C4CC4)n3n2)CC1)C(F)(F)F [Compound 20, 1-(4-((8-(benzylamino)-3-cyclopropylimidazo[1,2-b]pyridazin-6-yl)thio)piperidin-1-yl)-2,2,2-trifluoroethan-1-one]

IC50 [nM]	SMILES
100 to 1000	c1ccc(CNc2nc(SC3CCNCC3)cn3c(C4CC4)cnc23)cc1 [Compound 21, N-benzyl-3-cyclopropyl-6-(piperidin-4-ylthio)imidazo[1,2-α]pyrazin-8-amine formate salt]
100 to 1000	CC(C)c1cnc2c(N[C@@H](C)c3ccccc3)cc(OC3CCNCC3)nn12 [Compound 27, hydrochloride]
< 100	CC(C)c1cnc2c(N[C@@H](C)c3ccccc3)cc(SC3CCCNC3)nn12 (stereo partly drawn) [Compound 28, 3-isopropyl-N-((S)-1-phenylethyl)-6-(piperidin-3-ylthio) imidazo [1,2-b]pyridazin-8-amine hydrochloride]
100 to 1000	CC(C)c1cnc2c(N[C@@H](C)c3ccccc3)cc(NC3CCNCC3)nn12 [Compound 29, (S)-3-isopropyl-N8-(1-phenylethyl)-N6-(piperidin-4-yl)imidazo[1,2-b]pyridazine-6,8-diamine hydrochloride]
100 to 1000	COC(=O)[C@@H](N)CSc1cc(NCc2ccccc2)c2ncc(C3CC3)n2n1 [Compound 30, methyl S-(8-(benzylamino)-3-cyclopropylimidazo[1,2-b]pyridazin-6-yl)-L-cysteinate hydrochloride]
> 1000	c1ccc(CNc2nc(NC3CCNCC3)cn3c(C4CC4)cnc23)cc1 [Compound 31, N8-benzyl-3-cyclopropyl-N6-(piperidin-4-yl)imidazo[1,2-α]pyrazine-6,8-diamine hydrochloride]
100 to 1000	CC(C)c1cnc2c(NCc3ccccc3OC(F)(F)F)cc(OC[C@H]3CNCCO3)nn12 [Compound 47, (R)-3-isopropyl-6-(morpholin-2-ylmethoxy)-N-(2-(trifluoromethoxy)benzyl)imidazo[1,2-b]pyridazin-8-amine hydrochloride]
100 to 1000	CC(C)c1cnc2c(NCc3ccccc3OC(F)(F)F)cc(OC[C@@H]3CNCCO3)nn12 [Compound 49, (S)-3-isopropyl-6-(morpholin-2-ylmethoxy)-N-(2-(trifluoromethoxy)benzyl)imidazo[1,2-b]pyridazin-8-amine hydrochloride]
100 to 1000	CC(C)c1cnc2c(Nc3cccc(F)c3)cc(OC3CCNCC3)nn12 [Compound 50, N-(3-fluorophenyl)-3-isopropyl-6-(piperidin-4-yloxy)imidazo[1,2-b]pyridazin-8-amine hydrochloride]
< 100	CC(C)c1cnc2c(NCc3c(F)cccc3F)cc(SC3CCNCC3)nn12 [Compound 52, N-(2,6-difluorobenzyl)-3-isopropyl-6-(piperidin-4-ylthio)imidazo[1,2-b]pyridazin-8-amine hydrochloride]
< 100	CC(C)c1cnc2c(NCc3cccc(OC(F)(F)F)c3)cc(SC3CCNCC3)nn12 [Compound 54, 3-isopropyl-6-(piperidin-4-ylthio)-N-(3-(trifluoromethoxy)benzyl)imidazo[1,2-b]pyridazin-8-amine hydrochloride]
< 100	CC(C)c1cnc2c(NCc3cccc(C(F)(F)F)c3)cc(SC3CCNCC3)nn12 [Compound 55, 3-isopropyl-6-(piperidin-4-ylthio)-N-(3-(trifluoromethyl)benzyl)imidazo[1,2-b]pyridazin-8-amine hydrochloride]
100 to 1000	CC(C)c1cnc2c(Nc3cccc(C(F)(F)F)c3)cc(SC3CCCNC3)nn12 (centres unmarked) [Compound 57, 3-isopropyl-6-(piperidin-3-ylthio)-N-(3-(trifluoromethyl)phenyl)imidazo[1,2-b]pyridazin-8-amine hydrochloride]
100 to 1000	CC(C)c1cnc2c(Nc3cccc(OC(F)(F)F)c3)cc(SC3CCCNC3)nn12 (centres unmarked) [Compound 58, 3-isopropyl-6-(piperidin-3-ylthio)-N-(3-(trifluoromethoxy)phenyl)imidazo[1,2-b]pyridazin-8-amine hydrochloride]
< 100	CC(C)c1cnc2c(Nc3c(F)cccc3F)cc(SC3CCCNC3)nn12 (centres unmarked) [Compound 59, N-(2,6-difluorophenyl)-3-isopropyl-6-(piperidin-3-ylthio)imidazo[1,2-b]pyridazin-8-amine hydrochloride]
100 to 1000	CC(C)c1cnc2c(Nc3ccccc3OC(F)(F)F)cc(SC3CCCNC3)nn12 (centres unmarked) [Compound 60, 3-isopropyl-6-(piperidin-3-ylthio)-N-(2-(trifluoromethoxy)phenyl)imidazo[1,2-b]pyridazin-8-amine hydrochloride]

SMILES	IC50 [nM]
CN1CCC[C@@H](Oc2cc(Nc3cccc(F)c3)c3ncc(C4CC4)n3n2)C1 [Compound 4, (R)-3-cyclopropyl-N-(3-fluorophenyl)-6-((1-methylpiperidin-3-yl)oxy)imidazo[1,2-b]pyridazin-8-amine]	> 1000
CN1CCC[C@H](Oc2cc(Nc3cccc(F)c3)c3ncc(C4CC4)n3n2)C1 [Compound 7, (S)-3-cyclopropyl-N-(3-fluorophenyl)-6-((1-methylpiperidin-3-yl)oxy)imidazo[1,2-b]pyridazin-8-amine]	> 1000
